This is an account of results in US20100267653A1, “USE OF COUMARIN DERIVATIVES IN ANTIFUNGAL THERAPY” (priority 2006, published 2010).

≈ marks a conversion by molar mass, not a printed value. Where two headings read alike, the source gives them in different places.

The nature of data set [1]: Solubility of coumarins in RPMI 1640 media and DMSO. To be noted: for DMSO Concentration: DMSO present for the stated solubility in RPMI 1640; for solubility: aqueous buffer, kinetic from dmso stock, pH = 7.0, in presence of the DMSO concentration of the same table line. In kind it is physicochemical. The procedure: The solubility of the aglycones was compared to the respective glycoside in RPMI 1640 media and in DMSO.
(§1) Solubilisation of other compounds required the presence of DMSO. Esculetin, daphnetin, 4-(trifluoromethyl) coumarin, 4-(trifluoromethyl)-coumarin-7-0-glucose and cichoriin were dissolved in DMSO at 1000× final test concentration; when this solution was diluted to the concentration used in the experiments using 2× strength RPMI 1640 medium, the final concentration of DMSO was […] which alone had no effect on the fungi when tested in several experiments performed. Fraxetin required a final concentration of 0.2% DMSO, but this too had no effect on the growth of the fungi when tested in separate experiments.

Data set [2] concerns Trichophyton interdigitale NCPF335. The data set is described as follows: Antifungal activity, growth in RPMI 1640 microtitre plates (OD 530 nm). In kind it is cell-based. The procedure:
(§2) Esculin, esculetin and a range of other coumarins and their glycosides were tested for their antifungal activity against Trichophyton rubrum, Trichophyton interdigitale and other fungi isolated from nails and skin.
(§3) Suspensions of fungal conidia and hyphal fragments for use as experimental inocula were prepared by adding 3 ml of demineralised water or 0.15% (w/v) NaCl solution to a slope culture which had been incubated at 30° C. for 7 to 10 days and probing the surface of the culture with a sterile plastic transfer pipette. […] The resulting suspension was filtered through a double layer of sterile surgical gauze; if necessary a further volume of up to 3 ml of water or 0.15% (w/v) NaCl was used to wash through any spores or small hyphal fragments held on the gauze. 100 μl of this suspension, adjusted to an optical density between 0.14 and 0.16 at 530 nm (corresponding to between 0.5 and 1.5×10^6 propagules/ml) was added to the wells in sterile 96-well microtitre plates to which 100 μl of 2× strength RPMI 1640 media (a chemically-defined nutrient medium widely used in tissue culture and antimicrobial resistance testing) had been added. Inocula prepared in this way were used in all of the experiments; additionally, for some experiments with esculin shown in FIG. 4, the results obtained with standard inocula prepared as described above (labelled “young inoculum” in FIG. 4), were compared with the results obtained in similar tests using inocula which had been cultured for up to 9 weeks (labelled “old inoculum” in FIG. 4). As appropriate, coumarins were pre-dissolved in 2× strength RPMI 1640 medium before addition to the plate. Experiments with the yeasts Candida albicans and Candida krusei were set up in the same way, but in these cases, filtration of the cell suspensions was not necessary.
as §1
(§4) A series of dilutions of the coumarin solutions was prepared on the plates by mixing known volumes of the coumarin stock solutions in the wells with fresh volumes of 2×RPMI 1640 medium. Each concentration of coumarin was studied in triplicate wells. For observations on Trichophyton rubrum NCPF118 and Trichophyton interdigitale NCPF335, obtained from the National Collection of Pathogenic Fungi (Bristol), the plates were incubated in a Bio-Tek Powerwave XS scanning plate reader at 30° C., and fungal growth within the plates was measured at intervals of 2 h for up to 72 h or 96 h as specified in the text by recording the absorbance (optical density) of the wells at 530 nm. Observations on Candida albicans and Candida krusei were made in the same way, but the incubation temperature was 37° C. and the incubation time was 48 h. For observations with clinical fungal isolates obtained from the collection of M. Monod (Lausanne, Switzerland), the procedure was as described above except that in response to the relatively slow growth of these isolates, incubations were performed in a static incubator at 30° C. and the plates were read manually in a Bio-Tek Powerwave XS scanning plate reader at intervals of 24 h for up to 168 h, being returned to the incubator after each reading. Malassezia furfur grows poorly in the system described above, so for this organism, a standard inoculum of M. furfur was mixed with an equal volume of a solution of esculetin and the mixture was plated onto Petri dishes containing Sabouraud's agar medium. […]

The test system of data set [3] is Trichophyton rubrum NCPF118. Described as above. In kind it is cell-based. The note with it: for MIC: T. rubrum NCPF118, 30° C. The procedure:
as §2, §3, §1, §4

Data set [4] relates to Candida albicans, Cryptococcus neoformans, Saccharomyces cerevisiae and Aspergillus niger. To be noted: Sardari et al, Bioorg. Med. Chem. 7, 1999; cited from earlier work.
Where [5] appears, read: old inoculum (cultured up to 9 weeks) versus young inoculum, FIG. 4.

The term solubility denotes the dissolved amount per volume that the medium holds. One may read the MIC as the lowest concentration that inhibits growth of the organism. As to `COc1cc2ccc(=O)oc2c(O)c1O` [Fraxetin, 7,8 dihydroxy-6-methoxycoumarin], the “DMSO Concentration” value in data set [1] was 0.4 % v/v. Also, the solubility in data set [1] was found to be 5 mM. Also, the MIC was 500 µM (≈ 104 µg/mL) in data set [2] (Trichophyton interdigitale, T. interdigitale NCPF335, 30° C.) and 250 µM (≈ 52 µg/mL) in data set [3] (Trichophyton rubrum, read-out: MIC).

For the compound `Cc1cc(=O)oc2cc(O)c(O)cc12` [4 methyl esculetin], in data set [3], the MIC worked out at 1000 µM (≈ 192 µg/mL).

Take `O=c1ccc2cc(OC3OC(CO)C(O)C(O)C3O)c(O)cc2o1` (stereo not shown) [Esculin, 6,7 dihydroxycoumarin-6-glucoside]: the “antifungal activity against the fungi tested” value in data set [4] is reported as “minimal antifungal activity”. For the same compound, in data set [1], the “DMSO Concentration” value is 0 % v/v and the solubility was 20 mM. For the same compound, the “solubility in 2×RPMI 1640 solution (in words)” value in data set [1] (without DMSO) is listed as “dissolves readily”. The “effect on the growth of Trichophyton interdigitale NCPF335” value in data set [2] (addition of β-glucosidase and esculin, FIG. 2) is on record as “significantly inhibits fungal growth”. Besides, the “sensitivity of older cultures of T. interdigitale NCPF335” value in data set [2] (setting [5]) was “more sensitive”. Moreover, the “effect on the growth of Trichophyton rubrum NCPF118” value in data set [3] (addition of β-glucosidase and esculin, FIG. 1) is on record as “significantly inhibits fungal growth”. Moreover, the “sensitivity of older cultures of T. rubrum NCPF118” value in data set [3] (setting [5]) is listed as “more sensitive”.
